Measurements as given in ChEMBL document CHEMBL5576160, “N-Substituted Pyrrole-Based Heterocycles as Broad-Spectrum Filoviral Entry Inhibitors” (J Med Chem, 2024).
Activity calls are given as the source filed them. No cut-off for these calls is given here.

Tests used:
[1] = Selectivity index, ratio of CC50 for cytotoxicity against human A549 cells to EC50 for antiviral activity against pseudotyped EBOV Mayinga infected in human A549 cells assessed as inhibition of Pseudoviral entry; assay type: toxicity, cell-based; settings: read-out: Ratio CC50/EC50
Marburgvirus [2] = assay: Antiviral activity against pseudotyped Marburgvirus Angola infected in human A549 cells assessed as inhibition of Pseudoviral entry incubated for 40 hrs; assay type: functional, organism-based; settings: Orthomarburgvirus, A549, 40 h
[3] = Selectivity index, ratio of CC50 for cytotoxicity against human A549 cells to EC50 for antiviral activity against pseudotyped Marburgvirus Angola infected in human A549 cells assessed as inhibition of Pseudoviral entry; assay type: toxicity, cell-based; settings: read-out: Ratio CC50/EC50
Ebolavirus [4] = assay: Antiviral activity against pseudotyped EBOV Mayinga infected in human A549 cells assessed as inhibition of Pseudoviral entry incubated for 40 hrs; assay type: functional, organism-based; settings: Orthoebolavirus, A549, 40 h
Bundibugyo virus = assay: Antiviral activity against pseudotyped Bundibugyo virus infected in human A549 cells assessed as inhibition of viral growth; assay type: functional, organism-based
Sudan ebolavirus [5] = assay: Antiviral activity against pseudotyped Sudan ebolavirus Gulu infected in human A549 cells assessed as inhibition of viral growth; assay type: functional, organism-based
Tai Forest ebolavirus = assay: Antiviral activity against pseudotyped Tai Forest ebolavirus infected in human A549 cells assessed as inhibition of viral growth; assay type: functional, organism-based
A549 = assay: Cytotoxicity against human A549 cells assessed as as reduction in cell viability incubated for 48 hrs by celltiter-glo assay; assay type: functional
Ebolavirus [6] = assay: Antiviral activity against EBOV Mayinga infected in human HeLa cells assessed as inhibition of viral replication incubated for 40 hrs; assay type: functional, organism-based; settings: Orthoebolavirus
Sudan ebolavirus [7] = assay: Antiviral activity against pseudotyped Sudan ebolavirus Gulu infected in human HeLa cells assessed as inhibition of viral replication; assay type: functional, organism-based
Marburgvirus [8] = assay: Antiviral activity against Marburgvirus Angola infected in human Huh-7 cells assessed as inhibition of viral replication; assay type: functional, organism-based; settings: Orthomarburgvirus
[9] = Stability in mouse plasma measured after 60 mins; assay type: ADME, cell-free; settings: read-out: Stability
[10] = Stability in human plasma measured after 60 mins; assay type: ADME, cell-free; settings: read-out: Stability
Marburgvirus [11] = assay: Antiviral activity against pseudotyped Marburgvirus Angola infected in human A549 cells assessed as inhibition of viral growth at 10 uM entry measured after 2 hrs; assay type: functional, organism-based
Ebolavirus [12] = assay: Antiviral activity against pseudotyped EBOV Mayinga infected in human A549 cells assessed as inhibition of viral growth at 3 uM measured after 3 hrs; assay type: functional, organism-based
[13] = Binding affinity to EBOV glycoprotein assessed as dissociation constant by SPR analysis; design: species or system Ebolavirus

Row | SMILES | selectivity ratio [1] | EC50 (Marburgvirus [2]) [µM] | selectivity ratio [3] | EC50 (Ebolavirus [4]) [µM] | other results
1 | CN(C)CCNC(=O)c1cc2occc2n1Cc1ccc(Cl)c(C(F)(F)F)c1 | 17 | 3.16 | 10 | 1.9 | –
2 | CN(C)C1CCN(C(=O)c2cc3occc3n2Cc2ccc(F)cc2)CC1 | > 25 | 11.4 | > 8.8 | 3.93 | –
3 | CN(C)CC1CN(C(=O)c2cc3occc3n2Cc2ccc(Cl)cc2)C1 | 46 | 4.57 | 12 | 1.23 | –
4 | CN(C)C1CCN(C(=O)c2cc3sccc3n2Cc2ccc(Cl)cc2)CC1 | 61 | 3.7 | 15 | 0.899 | EC50 (Bundibugyo virus): 1.9 µM; EC50 (Sudan ebolavirus [5]): 1.01 µM; EC50 (Tai Forest ebolavirus): 4.14 µM
5 | CC(C)N1CCN(C(=O)c2cc3sccc3n2Cc2ccc(Cl)cc2)CC1 | 17 | 32.8 | 3.1 | 5.84 | –
6 | O=C(Nc1ccc(N2CCC(F)(F)CC2)cc1)c1cc2occc2n1Cc1ccc(Cl)cc1 | 8.6 | > 100 | 1 | 11.7 | EC50 (Bundibugyo virus): 36.4 µM; CC50 (A549): > 100 µM; EC50 (Sudan ebolavirus [5]): 2.39 µM; EC50 (Tai Forest ebolavirus): > 100 µM
7 | COc1ccc(Cn2c(C(=O)N3CCC(N(C)C)CC3)cc3ccccc32)cc1 | – | 7.84 | 13 | 0.543 | EC50 (Ebolavirus [6]): 0.854 µM; EC50 (Sudan ebolavirus [7]): ~20 µM; EC50 (Bundibugyo virus): 1.39 µM; CC50 (A549): ~100 µM; EC50 (Sudan ebolavirus [5]): 1.23 µM; EC50 (Tai Forest ebolavirus): 5.28 µM; EC50 (Marburgvirus [8]): 4.29 µM
8 | CN(C)C1CCN(C(=O)c2cc3ccccc3n2Cc2ccc(Cl)cc2)CC1 | 44 | 6.83 | < 1 | 1.38 | EC50 (Sudan ebolavirus [5]): 0.884 µM; EC50 (Tai Forest ebolavirus): 4.95 µM
9 | O=C(c1cc2ccccc2n1Cc1ccccc1)N1CCCCC1 | 11 | > 100 | 11 | 9.11 | –
10 | CN(C)CCNC(=O)c1cc2ccccc2n1Cc1ccc(F)cc1 | 16 | 4.21 | 8.9 | 3.39 | –
11 | CN(C)C1CCN(C(=O)c2cc3ccccc3n2Cc2ccccc2)CC1 | ~180 | 9.53 | 9.6 | 0.55 | remaining at 1 h [9]: 100%; remaining at 1 h [10]: 100%; CC50 (A549): ~100 µM
12 | CCN(CC)CCNC(=O)c1cc2occc2n1Cc1ccc(Cl)cc1 | 38 | 3.67 | 17 | 1.61 | –
13 | CN(C)CCOc1ccc(/C(=C(/CCCl)c2ccccc2)c2ccccc2)cc1 [TOREMIFENE] | – | – | – | – | Activity (Marburgvirus [11]): inactive; Activity (Ebolavirus [12]): inactive; Kd [13]: 18.9 µM
14 | CCOc1ncc(NC(=O)c2cc3occc3n2Cc2ccc(Cl)cc2)cc1F | 41 | > 100 | 1 | 2.43 | CC50 (A549): > 100 µM
15 | CN(C)CCNC(=O)c1cn(Cc2ccccc2)c2ccccc12 | 21 | 11.1 | 6.1 | 3.28 | –
